Read-outs that look alike come from different tables or passages of the source.
How the values were obtained:
[1] = tested on: liver cell; set-up: unit not given here; settings: cited from earlier work
[2] = tested on: skeletal muscle; assay: Human clinical trial with statins: skeletal muscle cholesterol and ubiquinone (Paiva et al.); type: in vivo

## CC(C)c1c(C(=O)Nc2ccccc2)c(-c2ccccc2)c(-c2ccc(F)cc2)n1CC[C@@H](O)C[C@@H](O)CC(=O)O [atorvastatin]
[1]; DOSE 0.01
  Cholesterol: 15.52
[1]; DOSE 3
  Cholesterol: 14.27
[1]; DOSE 10
  Cholesterol: 13.71
[1]; DOSE 20
  Cholesterol: 13.66

## CCC(C)(C)C(=O)O[C@H]1C[C@@H](C)C=C2C=C[C@H](C)[C@H](CC[C@@H]3C[C@@H](O)CC(=O)O3)[C@H]21 [simvastatin]
[2]; drop
  Ubiquinone, Percent from placebo: 134% drop
[2]; rise
  Cholesterol, Percent from placebo: 139% rise
